Values joined by “and” are separate entries in the source; they are usually repeats but may differ in a detail not shown here. Equal entries are not always repeated.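 48-hour exposure; five concentrations; linearly interpolated endpoints. GI50 is the concentration that inhibits growth by half. TGI is the concentration that stops growth completely.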
How the values were obtained:
Experiment in all cases: growth of human tumour cells (NCI), 48 h
SF-268 CNS = tested on: SF-268 CNS
LOX IMVI melanoma = tested on: LOX IMVI melanoma
OVCAR-5 ovarian = tested on: OVCAR-5 ovarian
OVCAR-8 ovarian = tested on: OVCAR-8 ovarian
OVCAR-3 ovarian = tested on: OVCAR-3 ovarian
COLO 205 colon = tested on: COLO 205 colon
EKVX NSCLC = tested on: EKVX NSCLC
HCT-15 colon = tested on: HCT-15 colon
HT29 colon = tested on: HT29 colon
CCRF-CEM leukemia = tested on: CCRF-CEM leukemia

| Compound | GI50 (SF-268 CNS) [µM] | TGI (SF-268 CNS) [µM] | GI50 (LOX IMVI melanoma) [µM] | TGI (LOX IMVI melanoma) [µM] | GI50 (OVCAR-5 ovarian) [µM] | TGI (OVCAR-5 ovarian) [µM] | GI50 (OVCAR-8 ovarian) [µM] | TGI (OVCAR-8 ovarian) | GI50 (OVCAR-3 ovarian) [µM] | TGI (OVCAR-3 ovarian) [µM] | GI50 (COLO 205 colon) [µM] | TGI (COLO 205 colon) [µM] | GI50 (EKVX NSCLC) [µM] | TGI (EKVX NSCLC) [µM] | GI50 (HCT-15 colon) [µM] | TGI (HCT-15 colon) [µM] | GI50 (HT29 colon) [µM] | TGI (HT29 colon) | GI50 (CCRF-CEM leukemia) [µM] | TGI (CCRF-CEM leukemia) [µM] |
| --- | --- | --- | --- | --- | --- | --- | --- | --- | --- | --- | --- | --- | --- | --- | --- | --- | --- | --- | --- | --- |
| Cc1ccccc1-n1c(/C=C\c2ccccn2)nc2ccccc2c1=O | 15.2 | > 100 | 15 | 37 | 19.5 | > 100 | 21.4 | > 100 µM | 6.75 | 53.6 | 9.65 | 28.5 | 23.7 | > 100 | 7.39 | 37.2 | 19.7 | > 100 µM | 4.24 | 30.1 |
| c1ccc2cc(OCC3CO3)c(OCC3CO3)cc2c1 (centres undefined) | – | 13.3 | – | 12 | – | 23.4 | – | 12.2 µM | – | 27.9 | – | 25.3 | – | 24.1 | – | 16.6 | – | 20.1 µM | – | 1.48 |
| COC(=O)c1c2c(c(C)[n+]([O-])c1C)C(=O)C(NCc1cccc(OC)c1)=CC2=O | 2.86 | 11.7 | 2.36 | 6.86 | 2.05 | 4.76 | 2.52 | 10.3 µM | 0.512 | 3.21 | 1.1 | 2.86 | 2.11 | 5.44 | 1.89 | 4.73 | 2.51 | > 100 µM | 3.09 | 17.1 |
| CCCCCCCCCCCCOC1C(C(COC2OC(C(O)CN3CCCCC3)C3OC(C)(C)OC23)NC(=O)Nc2ccccc2)OC2OC(C)(C)OC21 (centres undefined) | 10.3 | 25.4 | 7.87 | 26.1 | 18.5 | 34.3 | 15.5 | 39.7 µM | 14.7 | 34.6 | 3.86 | 16.8 | 14.4 | 30.2 | 8.6 | 24.3 | 2 | 4.73 µM | 0.863 | 2.23 |
| O=C(CCc1ccccc1)On1nnc2ccccc2c1=O | – | > 100 | – | > 100 | – | > 100 | – | > 100 µM | – | > 100 | – | > 100 | – | > 100 | – | > 100 | – | > 100 µM | – | > 100 |
| CCOC(=O)c1cc2cc(NC(=O)c3cc4cc([N+](=O)[O-])ccc4n3C)ccc2n1C | 49.1 | > 100 | 13.1 | 28 | 21.7 | 61.9 | 49.5 | > 100 µM | 31.7 | > 100 | 76.5 | > 100 | 20 | > 100 | 15.4 | 51.6 | 24.9 | > 100 µM | 7.94 | > 100 |
| O=C(O)c1ccc(S(=O)(=O)N=Nc2c(O)[nH]c3ccccc23)cc1 | – | > 100 | – | > 100 | – | > 100 | – | > 100 µM | – | > 100 | – | > 100 | – | > 100 | – | > 100 | – | > 100 µM | – | > 100 |
| Cc1ccc(C2SCc3nc4ccc(C(=O)c5ccccc5)cc4n32)cc1 (centres undefined) | 22.4 | 77.7 | > 36.7 | > 100 | 21.5 | 55.2 | 15.4 | 62.6 µM | 6.72 | 21.9 | 6.18 | > 100 | 21.8 | > 100 | 3.85 | > 42.9 | 5.73 | > 100 µM | 23.8 | > 100 |
| CC1CCCN(CC(O)CN2CCCc3ccccc32)C1 (centres undefined) | – | > 100 | – | > 100 | – | > 100 | – | > 100 µM | – | > 100 | – | > 100 | – | > 100 | – | > 100 | – | > 100 µM | – | > 100 |
| O=C(O)c1ccc(-c2ccc(C(=O)O)cc2I)c(I)c1 | > 100 | > 100 | > 100 | > 100 | > 100 | > 100 | > 100 | > 100 µM | > 100 | > 100 | > 100 | > 100 | > 100 | > 100 | > 100 | > 100 | > 100 | > 100 µM | > 100 | > 100 |
| Cc1c2ncccc2nc2[nH]c3ccc(OCCN(C)C)cc3c12 | 2.16 | 15.4 | 1.54 | 5.78 | 2.81 | 19.2 | 1.49 | 16.5 µM | 3.62 | 19.7 | 1.5 | 7.94 | 2.9 | 21.2 | 1.33 | 16.3 | 0.961 | 6.05 µM | 2.1 | 20.9 |
| COc1ccc(NC(=O)c2sc3nc(C)c(C(O)c4ccc(OC)cc4)cc3c2N)cc1 (centres undefined) | 2.28 | > 50 | 1.4 | > 50 | 1.87 | > 50 | 1.79 | > 50 µM | 0.365 | 5.31 | 1.57 | 31.6 | 3.13 | > 50 | 0.414 | > 50 | 1.45 | 19.4 µM | 1.44 | > 50 |
| BrC(Br)(Br)c1cnc2ccccc2n1 | 4 | 17.5 | 0.425 | 2.19 | 2.77 | 7.45 | 1.76 | 4.07 µM | 1.5 | 3.04 | 0.735 | 2.13 | 2.99 | 13.2 | 2.03 | 6.2 | 1.06 | 2.67 µM | 0.49 | 2.42 |
| CCn1c(-c2nonc2N)nc2c(C#CC(C)(C)O)nc(O[C@@H](CN)c3ccccc3)cc21 | 0.574 | 1.98 | 0.14 | 1.32 | 0.859 | 15.8 | 0.244 | 2.59 µM | 0.0845 | 0.314 | 0.123 | 0.646 | 0.982 | 9.38 | 3.1 | 24.1 | 0.119 | 0.735 µM | 0.0554 | 5.16 |
| Cc1[nH]c(=O)nc(CC(O)(c2ccccc2)c2ccccc2)c1-c1ccccc1 | – | > 100 | – | > 100 | – | > 100 | – | > 100 µM | – | > 100 | – | > 100 | – | > 100 | – | > 100 | – | > 100 µM | – | > 100 |
| O=C(Nc1cccc2cccnc12)c1ccc(N2C(=O)[C@@H]3[C@H](C2=O)[C@@H]2C=C[C@H]3C2)cc1 | 35.7 | > 100 | 31.8 | > 100 | 55.9 | > 100 | 26 | > 100 µM | 20.7 | > 100 | 37.6 | > 100 | 32.2 | > 100 | 30.7 | > 100 | 18 | 62.4 µM | 30.1 | > 100 |
| NS(=O)(=O)c1ccc(NC(=O)CC(=O)Nc2ccc(S(N)(=O)=O)cc2)cc1 | – | > 100 | – | > 100 | – | > 100 | – | > 100 µM | – | > 100 | – | > 100 | – | > 100 | – | > 100 | – | > 100 µM | – | > 100 |
| COc1ccc2[nH]c(-c3cccc(N(C)C)c3)cc(=O)c2c1 | 0.657 | 33.7 | 0.599 | – | 0.784 | > 100 | 0.433 | 2.48 µM and 5.56 µM | – | 0.368 | 0.379 | – | 1.17 | 30.7 | 0.374 | – | 0.345 | 1.46 µM and 3.21 µM | – | 0.907 |
| O=C(CCCNC(=O)OCc1ccccc1)OCc1ccc2c(c1)C(=O)c1ccccc1C2=O | – | > 100 | – | > 100 | – | > 100 | – | > 56.2 µM | – | > 100 | – | > 23 | – | > 100 | – | > 100 | – | > 100 µM | – | > 100 |
| CCCCN(CCCC)CC(C)(C)C(O)c1ccc(OC)c2ccccc12 (centres undefined) | 12.6 | 38.3 | 5.53 | 19.4 | 2.4 | 16.4 | 9.76 | 28.8 µM | 2.84 | 13.9 | 3.1 | 15.8 | 4.24 | 22.9 | 3.88 | 16.5 | 0.875 | 13.4 µM | 5.13 | 26.7 |
| C#CCOc1ccc2ncnc(Nc3ccc(NC(=O)CCl)cc3)c2c1 | 4.67 | 22.3 | 1.5 | 3.43 | 16.8 | 44.7 | 5.15 | 63.4 µM | 4.68 | 17.2 | 13.8 | 31.5 | 10.9 | 33.2 | 2.96 | 19.2 | 4.22 | 16 µM | 2.38 | 12.2 |
| N#CCC(=O)N/N=C1/C(=O)NC(=O)C(=O)C1c1nc2ccccc2s1 (centres undefined) | – | > 100 | – | > 100 | – | > 100 | – | > 100 µM | – | > 100 | – | > 100 | – | > 100 | – | > 100 | – | > 100 µM | – | > 100 |
| COc1cccc(Cn2cc3c(c2)-c2oncc2CC3)c1 | 0.918 | > 100 | 0.912 | > 100 | 0.693 | > 100 | 0.622 | > 69.3 µM | 0.267 | 0.7 | 0.313 | 1.05 | 0.508 | > 77 | 0.401 | > 38.1 | 0.306 | 11.7 µM | 0.253 | – |
| CC(=O)NCCCCCCNC(C)=O | – | > 10000 | – | > 10000 | – | > 10000 | – | > 10000 µM | – | 9840 | – | > 10000 | – | > 10000 | – | > 10000 | – | > 10000 µM | – | > 10000 |
| O=C(c1ccco1)c1c(C(F)(F)F)nc2cc(C(F)(F)F)ccc2[n+]1[O-] | 24.6 | 81.3 | 48.1 | > 100 | 67.8 | > 100 | 31.8 | > 100 µM | 37.8 | > 100 | > 100 | > 100 | 50.6 | > 100 | > 100 | > 100 | > 100 | > 100 µM | 15.6 | 44.3 |
| CN(C)c1nc(N(C)C)n2nc(-c3ccccc3[N+](=O)[O-])nc2n1 | – | > 100 | – | > 100 | – | > 100 | – | > 100 µM | – | > 100 | – | > 100 | – | > 100 | – | 31.3 | – | > 100 µM | – | > 100 |
| C=C1C(=O)O[C@H]2[C@H]1[C@H](OC(=O)/C(C)=C\C)C[C@]1(CO1)[C@@H]1[C@H](OC(C)=O)C=C(C)[C@]21O | – | 45.5 | – | 29 | – | > 59.1 | – | > 100 µM | – | 32.1 | – | 19.4 | – | 33.8 | – | 33.5 | – | 30.4 µM | – | 15.6 |
